Measured values reported in patent publication US4321265A, “7α-Methoxycephalosporins” (Toyama Chemical Co., Ltd., priority 1977, dated 1982).
In brackets after ≈: the same amount, converted by molar mass. Read-outs that look alike come from different tables or passages of the source.

Tests used:
[1] = target: T1, Cephalosporinase (E. coli GN-5482) (Escherichia coli, UniProt P00811); assay: Stability to β-lactamase, iodometry (Perret); type: biochemical; conditions: E. coli GN-5482 cephalosporinase; CER = 100; 30° C., pH 7.0
T1 construct: native preparation, details not in excerpts
Method: (§1) The stability to β-lactamase was examined by iodometry at 30° C. by the method of Perret (Perret, C. J., "Iodometric assay of penicillinase", Nature, 174, 1012-1013 (1954)), except that a 0.1 M phosphate buffer solution (pH 7.0) was used in place of the 0.2 M phosphate buffer solution (pH 6.5). The stability of each compound was shown in Table 2 in terms of relative degree of hydrolysis, assuming the stability of Cephaloridin (CER) to cephalosporinase as 100 and the stability of Penicillin G (PCG) to penicillinase as 100.

[2] = target: T2, Cephalosporinase (S. marcescens W-8) (Serratia marcescens, UniProt P18539); assay: Stability to β-lactamase, iodometry (Perret); type: biochemical; conditions: S. marcescens W-8 cephalosporinase; CER = 100; 30° C., pH 7.0
T2 construct: native preparation, details not in excerpts
Method: as §1

[3] = tested on: Penicillinase (E. coli TK-3); assay: Stability to β-lactamase, iodometry (Perret); type: biochemical; conditions: E. coli TK-3 penicillinase; PCG = 100; 30° C., pH 7.0
Method: as §1

[4] = tested on: Penicillinase (K. pneumoniae Y-4); assay: Stability to β-lactamase, iodometry (Perret); type: biochemical; conditions: K. pneumoniae Y-4 penicillinase; PCG = 100; 30° C., pH 7.0
Method: as §1

[5] = tested on: Penicillinase (P. aeruginosa GN-3379); assay: Stability to β-lactamase, iodometry (Perret); type: biochemical; conditions: P. aeruginosa GN-3379 penicillinase; PCG = 100; 30° C., pH 7.0
Method: as §1

[6] = tested on: Acinetobacter caloaceticus A-6; assay: Minimum inhibitory concentration (MIC), Heart Infusion agar; type: cell-based; conditions: read-out: minimum inhibitory concentration (MIC)
Method: (§2) Antibacterial activities of the representative compounds (Ib) of the 7α-methoxycephalosporins according to this invention are shown in Table 1. [drawing 20]
(§3) The figures given in Table 1 represent the minimum inhibitory concentration (MIC in mcg/ml) of each compound, which was determined according to the method described in "Chemotherapy (Society of Chemotherapy, Japan), Vol. 16, 98-99 (1968)": A culture obtained by cultivating the test bacterium in a Heart Infusion broth (Eiken Kagaku Co.) was inoculated into a Heart Infusion agar medium (Eiken Kagaku Co.). After 20 hours of the incubation at 37° C., the growth of the bacterium was inspected to determine the minimum inhibitory concentration (MIC in mcg/ml). The inoculation rate of the bacterium was 10^4 cells/plate (10^6 cells/ml).
(§4) (1) Minimum inhibitory concentration (MIC in mcg/ml).

[7] = tested on: C. freundii GN-346 (Cephalosporinase-producing bacterium); assay: as above; type: cell-based; conditions: Citrobacter freundii, read-out: minimum inhibitory concentration (MIC)
Method: as §2, §3, §4

Citrobacter N-7 = assay: as above; type: cell-based; conditions: read-out: minimum inhibitory concentration (MIC)
Method: as §2, §3, §4

E. coli NIHJ = assay: as above; type: cell-based; conditions: Escherichia coli, read-out: minimum inhibitory concentration (MIC)
Method: as §2, §3, §4

Ent. cloacae IID977 = assay: as above; type: cell-based; conditions: Enterobacter cloacae, read-out: minimum inhibitory concentration (MIC)
Method: as §2, §3, §4

K. pneumoniae Y-50 = assay: as above; type: cell-based; conditions: Klebsiella pneumoniae, read-out: minimum inhibitory concentration (MIC)
Method: as §2, §3, §4

Klebsiella spp. Y-72 = assay: as above; type: cell-based; conditions: read-out: minimum inhibitory concentration (MIC)
Method: as §2, §3, §4

Prot. vulgaris GN-76 = assay: as above; type: cell-based; conditions: Proteus vulgaris, read-out: minimum inhibitory concentration (MIC)
Method: as §2, §3, §4

Ps. aeruginosa IFO-3445 = assay: as above; type: cell-based; conditions: Pseudomonas aeruginosa, read-out: minimum inhibitory concentration (MIC)
Method: as §2, §3, §4

Ps. aeruginosa S-68 = assay: as above; type: cell-based; conditions: Pseudomonas aeruginosa, read-out: minimum inhibitory concentration (MIC)
Method: as §2, §3, §4

[8] = tested on: S. aureus F-19 (Penicillinase-producing bacterium); assay: as above; type: cell-based; conditions: Staphylococcus aureus, read-out: minimum inhibitory concentration (MIC)
Method: as §2, §3, §4

Ser. marcescens IID620 = assay: as above; type: cell-based; conditions: Serratia marcescens, read-out: minimum inhibitory concentration (MIC)
Method: as §2, §3, §4

Ser. marcescens W-8 = assay: as above; type: cell-based; conditions: Serratia marcescens, read-out: minimum inhibitory concentration (MIC)
Method: as §2, §3, §4

Ser. marcescens W-35 = assay: as above; type: cell-based; conditions: Serratia marcescens, W35, 20 h
Method: as §2
as §3, with “The inoculation rate of the bacterium was 10^4 cells/plate (10^6 cells/ml).” left out
as §4

S. marcescens W-35 = assay: Infection-protective activity in mice; type: in vivo, ICR-strain mice (male); conditions: subcutaneous, one hour after intraperitoneal inoculation; challenge dose 2.5 × 10^5 cells/mouse; ICR mice
Excerpt: Four-week old ICR-strain mice (male) in groups, each group consisting of five mice, were inoculated intraperitoneally with a prescribed quantity of a pathogenic bacterium suspended in 5% mucin. After one hour from the inoculation, the mice were subcutaneously administered with the test preparation to determine the infection-protective activity. The figures in Table 4 represent the protective activity in terms of ED50.

[9] = A6, Acinetobacter caloaceticus A-6, 10^6 cells/ml, 20 hours, 37° C.
[10] = GN346, C. freundii GN-346, 10^6 cells/ml, 20 hours, 37° C.
[11] = N7, Citrobacter N-7, 10^6 cells/ml, 20 hours, 37° C.
[12] = E. coli NIHJ, 10^6 cells/ml, 20 hours, 37° C.
[13] = Ent. cloacae IID977, 10^6 cells/ml, 20 hours, 37° C.
[14] = Y50, K. pneumoniae Y-50, 10^6 cells/ml, 20 hours, 37° C.
[15] = SPP.Y72, Klebsiella spp. Y-72, 10^6 cells/ml, 20 hours, 37° C.
[16] = GN76, Prot. vulgaris GN-76, 10^6 cells/ml, 20 hours, 37° C.
[17] = IFO3445, Ps. aeruginosa IFO-3445, 10^6 cells/ml, 20 hours, 37° C.
[18] = S68, Ps. aeruginosa S-68, 10^6 cells/ml, 20 hours, 37° C.
[19] = S. aureus F-19, 10^6 cells/ml, 20 hours, 37° C.
[20] = Ser. marcescens IID620, 10^6 cells/ml, 20 hours, 37° C.
[21] = W8, Ser. marcescens W-8, 10^6 cells/ml, 20 hours, 37° C.
[22] = Ser. marcescens W-35, 10^6 cells/ml, 20 hours, 37° C. (Table 1), read-out: minimum inhibitory concentration (MIC)

T1 sequence (P00811 20-377): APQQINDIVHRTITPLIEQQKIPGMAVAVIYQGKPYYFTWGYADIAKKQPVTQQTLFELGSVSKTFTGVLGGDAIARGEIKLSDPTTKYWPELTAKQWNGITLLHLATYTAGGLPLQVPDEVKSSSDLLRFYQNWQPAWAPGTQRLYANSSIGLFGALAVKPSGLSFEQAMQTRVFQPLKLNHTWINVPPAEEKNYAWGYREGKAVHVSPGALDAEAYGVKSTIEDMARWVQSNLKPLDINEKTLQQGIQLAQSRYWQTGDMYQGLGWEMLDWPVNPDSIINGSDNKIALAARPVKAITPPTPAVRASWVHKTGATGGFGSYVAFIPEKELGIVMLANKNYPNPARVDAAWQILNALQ
T2 sequence (P18539 22-376): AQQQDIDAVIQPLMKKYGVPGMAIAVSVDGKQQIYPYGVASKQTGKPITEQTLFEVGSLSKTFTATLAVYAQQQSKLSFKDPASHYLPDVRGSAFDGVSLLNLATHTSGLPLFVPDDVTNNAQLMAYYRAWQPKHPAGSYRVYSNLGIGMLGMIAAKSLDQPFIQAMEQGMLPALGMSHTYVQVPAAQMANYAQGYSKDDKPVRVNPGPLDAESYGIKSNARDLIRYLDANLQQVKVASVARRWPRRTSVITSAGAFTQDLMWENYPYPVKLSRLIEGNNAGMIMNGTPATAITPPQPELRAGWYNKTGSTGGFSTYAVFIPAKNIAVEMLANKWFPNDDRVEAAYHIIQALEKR

## Cc1nnc(SCC2=C(C(=O)O)N3C(=O)[C@@H](NC(=O)Cn4cnnn4)[C@H]3SC2)s1 [CEZ, Cefazolin]
[1]
  Stability to β-lactamase, relative degree of hydrolysis: 130
[2]
  Stability to β-lactamase, relative degree of hydrolysis: 94
[3]
  Stability to β-lactamase, relative degree of hydrolysis: 21
[4]
  Stability to β-lactamase, relative degree of hydrolysis: 4
[5]
  Stability to β-lactamase, relative degree of hydrolysis: 2

## CO[C@@]1(NC(=O)CSCC#N)C(=O)N2C(C(=O)O)=C(CSc3nnnn3C)CS[C@@H]21 [CS-1170, reference compound]
[6]; Acinetobacter, A6, 20 h
  MIC: 50 µg/mL (≈ 106 µM)
[7]; GN346, 20 h
  MIC: ≥ 200 µg/mL
Citrobacter N-7; Citrobacter, N7, 20 h
  MIC: 25 µg/mL (≈ 53 µM)
E. coli NIHJ; 20 h
  MIC: 0.39 µg/mL (≈ 0.827 µM)
Ent. cloacae IID977; IID977, 20 h
  MIC: ≥ 200 µg/mL
K. pneumoniae Y-50; Y50, 20 h
  MIC: 0.39 µg/mL (≈ 0.827 µM)
Klebsiella spp. Y-72; Klebsiella, SPP.Y72, 20 h
  MIC: 12.5 µg/mL (≈ 26.5 µM)
Prot. vulgaris GN-76; GN76, 20 h
  MIC: 3.13 µg/mL (≈ 6.64 µM)
Ps. aeruginosa IFO-3445; IFO3445, 20 h
  MIC: ≥ 200 µg/mL
Ps. aeruginosa S-68; S68, 20 h
  MIC: ≥ 200 µg/mL
[8]; 20 h
  MIC: 1.56 µg/mL (≈ 3.31 µM)
Ser. marcescens IID620; IID620, 20 h
  MIC: 3.13 µg/mL (≈ 6.64 µM)
Ser. marcescens W-8; W8, 20 h
  MIC: ≥ 200 µg/mL
Ser. marcescens W-35; S. marcescens W-35, inoculated bacteria quantity 10^6 cells/ml (Table 4)
  MIC: 100 µg/mL (≈ 212 µM)
Ser. marcescens W-35; S. marcescens W-35, inoculated bacteria quantity 10^8 cells/ml (Table 4)
  MIC: 200 µg/mL (≈ 424 µM)
Ser. marcescens W-35; read-out: minimum inhibitory concentration (MIC), Ser. marcescens W-35, 10^6 cells/ml, 20 hours, 37° C. (Table 1)
  MIC: 100 µg/mL (≈ 212 µM)
S. marcescens W-35
  ED50 (infection-protective activity): 15.1 mg/mouse

## CCN1CCN(C(=O)N[C@@H](C(=O)N[C@]2(OC)C(=O)N3C(C(=O)O)=C(COC(C)=O)CS[C@@H]32)c2cccs2)C(=O)C1=O [OCOCH3, 7β-[D(-)-α-(4-ethyl-2,3-dioxo-1-piperazinecarboxamido)-α-(2-thienyl)-acetamido]-7α-methoxy-3-acetoxymethyl-Δ^3-cephem-4-carboxylic acid]
[6]; [9]
  MIC: 25 µg/mL (≈ 41 µM)
[7]; [10]
  MIC: 100 µg/mL (≈ 164 µM)
Citrobacter N-7; [11]
  MIC: 3.13 µg/mL (≈ 5.13 µM)
E. coli NIHJ; [12]
  MIC: ≤ 0.1 µg/mL
Ent. cloacae IID977; [13]
  MIC: 50 µg/mL (≈ 82 µM)
K. pneumoniae Y-50; [14]
  MIC: 1.56 µg/mL (≈ 2.56 µM)
Klebsiella spp. Y-72; [15]
  MIC: 6.25 µg/mL (≈ 10.3 µM)
Prot. vulgaris GN-76; [16]
  MIC: 1.56 µg/mL (≈ 2.56 µM)
Ps. aeruginosa IFO-3445; [17]
  MIC: 50 µg/mL (≈ 82 µM)
Ps. aeruginosa S-68; [18]
  MIC: 50 µg/mL (≈ 82 µM)
[8]; [19]
  MIC: 6.25 µg/mL (≈ 10.3 µM)
Ser. marcescens IID620; [20]
  MIC: 3.13 µg/mL (≈ 5.13 µM)
Ser. marcescens W-8; [21]
  MIC: 100 µg/mL (≈ 164 µM)
Ser. marcescens W-35; [22]
  MIC: 50 µg/mL (≈ 82 µM)

## CC1(C)S[C@@H]2[C@H](NC(=O)Cc3ccccc3)C(=O)N2[C@H]1C(=O)O [PC-G, Penicillin G]
[1]
  Stability to β-lactamase, relative degree of hydrolysis: 22
[2]
  Stability to β-lactamase, relative degree of hydrolysis: 21
[3]
  Stability to β-lactamase, relative degree of hydrolysis: 100
[4]
  Stability to β-lactamase, relative degree of hydrolysis: 100
[5]
  Stability to β-lactamase, relative degree of hydrolysis: 100

## CCN1CCN(C(=O)NC(C(=O)N[C@]2(OC)C(=O)N3C(C(=O)O)=C(CSc4nnnn4C)CS[C@@H]32)c2cccs2)C(=O)C1=O (stereo partly shown) [drawing 22]
[6]; [9]
  MIC: 12.5 µg/mL (≈ 18.8 µM)
[7]; [10]
  MIC: 25 µg/mL (≈ 37.6 µM)
Citrobacter N-7; [11]
  MIC: 0.78 µg/mL (≈ 1.17 µM)
E. coli NIHJ; [12]
  MIC: ≤ 0.1 µg/mL
Ent. cloacae IID977; [13]
  MIC: 25 µg/mL (≈ 37.6 µM)
K. pneumoniae Y-50; [14]
  MIC: 0.39 µg/mL (≈ 0.586 µM)
Klebsiella spp. Y-72; [15]
  MIC: 6.25 µg/mL (≈ 9.39 µM)
Prot. vulgaris GN-76; [16]
  MIC: 0.2 µg/mL (≈ 0.3 µM)
Ps. aeruginosa IFO-3445; [17]
  MIC: 12.5 µg/mL (≈ 18.8 µM)
Ps. aeruginosa S-68; [18]
  MIC: 12.5 µg/mL (≈ 18.8 µM)
[8]; [19]
  MIC: 3.13 µg/mL (≈ 4.7 µM)
Ser. marcescens IID620; [20]
  MIC: 0.78 µg/mL (≈ 1.17 µM)
Ser. marcescens W-8; [21]
  MIC: 25 µg/mL (≈ 37.6 µM)
Ser. marcescens W-35; [22]
  MIC: 6.25 µg/mL (≈ 9.39 µM)
